Laboratory results as given in ChEMBL document CHEMBL5260848, “Recent advancements in the development of bioactive pyrazoline derivatives” (Eur J Med Chem, 2020).
In brackets after ≈: the same amount, converted by molar mass.

Columns and labels:
Escherichia coli [1] = experiment: Antibacterial activity against Escherichia coli incubated for 24 hrs by disc diffusion method; assay type: functional
Aspergillus fumigatus = experiment: Antifungal activity against Aspergillus fumigatus incubated for 24 hrs by disc diffusion method; assay type: functional
Aspergillus niger [2] = experiment: Antifungal activity against Aspergillus niger incubated for 24 hrs by disc diffusion method; assay type: functional
Aspergillus flavus = experiment: Antifungal activity against Aspergillus flavus incubated for 24 hrs by disc diffusion method; assay type: functional
Staphylococcus aureus [3] = experiment: microbe, parasite or virus in culture; details: 24 h
Bacillus subtilis [4] = experiment: microbe, parasite or virus in culture; details: 24 h
Pseudomonas aeruginosa [5] = experiment: microbe, parasite or virus in culture; details: 24 h
Candida albicans [6] = experiment: microbe, parasite or virus in culture; details: 24 h
Staphylococcus aureus [7] = experiment: microbe, parasite or virus in culture
Candida albicans [8] = experiment: microbe, parasite or virus in culture
Escherichia coli [9] = experiment: Antibacterial activity against Escherichia coli by agar dilution method; assay type: functional
Pseudomonas aeruginosa [10] = experiment: Antibacterial activity against Pseudomonas aeruginosa by agar dilution method; assay type: functional
Staphylococcus aureus [11] = experiment: Antibacterial activity against Staphylococcus aureus by agar dilution method; assay type: functional
Bacillus subtilis [12] = experiment: Antibacterial activity against Bacillus subtilis by agar dilution method; assay type: functional
HepG2 [13] = experiment: Cytotoxicity against human HepG2 cells assessed as growth inhibition; assay type: functional, cell-based
Plasmodium berghei = experiment: Antimalarial activity against Plasmodium berghei infected in mouse assessed as suppression percentage at 48.46 umol/kg administered daily relative to control; assay type: functional; details: dose 48.46 µmol/kg
Escherichia coli [14] = experiment: Antibacterial activity against Escherichia coli assessed as inhibition of bacterial growth; assay type: functional
Pseudomonas aeruginosa [15] = experiment: Antibacterial activity against Pseudomonas aeruginosa assessed as inhibition of bacterial growth; assay type: functional
Staphylococcus aureus [16] = experiment: microbe, parasite or virus in culture; remark: listed apart in the source
Bacillus subtilis [17] = experiment: microbe, parasite or virus in culture
Carbonic anhydrase 1 = Carbonic anhydrase 1 (Homo sapiens, UniProt P00915)
Carbonic anhydrase 1, sequence (P00915 whole entry): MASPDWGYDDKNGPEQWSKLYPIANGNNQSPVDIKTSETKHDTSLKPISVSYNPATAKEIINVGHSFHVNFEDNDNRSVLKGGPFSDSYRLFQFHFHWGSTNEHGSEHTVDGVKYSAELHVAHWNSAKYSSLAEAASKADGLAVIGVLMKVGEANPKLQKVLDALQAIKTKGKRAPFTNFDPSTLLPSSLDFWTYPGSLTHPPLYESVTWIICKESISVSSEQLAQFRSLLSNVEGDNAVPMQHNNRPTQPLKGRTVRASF

Carbonic anhydrase 9 = Carbonic anhydrase 9 (Homo sapiens, UniProt Q16790); experiment: Inhibition of human CA9
Carbonic anhydrase 12 = Carbonic anhydrase 12 (Homo sapiens, UniProt O43570); experiment: Inhibition of human CA12
Carbonic anhydrase 12, sequence (O43570 whole entry): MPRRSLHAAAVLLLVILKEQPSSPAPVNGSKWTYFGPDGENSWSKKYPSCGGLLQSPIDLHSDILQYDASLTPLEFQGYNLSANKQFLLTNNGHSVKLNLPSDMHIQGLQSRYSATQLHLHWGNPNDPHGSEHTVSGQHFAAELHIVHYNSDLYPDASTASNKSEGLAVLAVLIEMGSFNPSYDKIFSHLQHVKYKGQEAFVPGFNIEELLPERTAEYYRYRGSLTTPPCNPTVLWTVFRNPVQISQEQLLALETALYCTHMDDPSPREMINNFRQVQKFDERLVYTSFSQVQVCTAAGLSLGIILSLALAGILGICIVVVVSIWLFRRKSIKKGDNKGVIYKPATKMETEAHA

Carbonic anhydrase 2 = Carbonic anhydrase 2 (Homo sapiens, UniProt P00918)
Mus musculus [18] = organism: Mus musculus; experiment: Antidepressant activity in mouse assessed as […] by tail suspension test; assay type: functional
Mus musculus [19] = organism: Mus musculus; experiment: Antidepressant activity in mouse assessed as […] by forced swimming test; assay type: functional
Mus musculus [20] = organism: Mus musculus; experiment: Antianxiety activity in mouse assessed as increase in number of entries in different arms; assay type: functional
Pseudomonas aeruginosa [21] = experiment: Potency index, ratio of ampicillin MIC to compound MIC for Pseudomonas aeruginosa by agar dilution method; assay type: functional
Candida albicans [22] = experiment: Antifungal activity against Candida albicans by agar dilution method; assay type: functional
Aspergillus niger [23] = experiment: Antifungal activity against Aspergillus niger by agar dilution method; assay type: functional
[24] = Growth inhibition of human Panel NCI-58 (58 carcinoma cell lines) cells by SRB method; assay type: functional
[25] = Cytotoxicity against human Panel NCI-58 (58 carcinoma cell lines) cells by SRB method; assay type: functional; details: read-out: LC50 (the source's name)
[26] = tested on: Bordetella bronchiseptica; experiment: Antibacterial activity against Bordetella bronchiseptica ATCC 4617 by plate dilution method; assay type: functional
Staphylococcus aureus [27] = experiment: Antibacterial activity against Staphylococcus aureus ATCC 25923 by plate dilution method; assay type: functional
Enterococcus faecalis = experiment: Antibacterial activity against Enterococcus faecalis ATCC 29212 by plate dilution method; assay type: functional
[28] = tested on: Staphylococcus epidermidis; experiment: Antibacterial activity against Staphylococcus epidermidis ATCC 12228 by plate dilution method; assay type: functional
Bacillus subtilis [29] = experiment: Antibacterial activity against Bacillus subtilis ATCC 6633 by plate dilution method; assay type: functional
Bacillus cereus = experiment: Antibacterial activity against Bacillus cereus ATCC 9946 by plate dilution method; assay type: functional
Escherichia coli [30] = experiment: Antibacterial activity against Escherichia coli ATCC 25922 by plate dilution method; assay type: functional
Pseudomonas aeruginosa [31] = experiment: Antibacterial activity against Pseudomonas aeruginosa ATCC 27853 by plate dilution method; assay type: functional
Klebsiella pneumoniae = experiment: Antibacterial activity against Klebsiella pneumoniae ATCC 700603 by plate dilution method; assay type: functional
Proteus vulgaris = experiment: Antibacterial activity against Proteus vulgaris ATCC 9920 by plate dilution method; assay type: functional
HepG2 [32] = experiment: cells; details: Homo sapiens
DU-145 = experiment: Cytotoxicity against human DU-145 cells by SRB assay; assay type: functional
Tubulin (Homo sapiens) = Tubulin (Homo sapiens) (UniProt P68371+Q9H4B7+P0DPH7+P68366+Q13509+Q71U36+P04350+Q3ZCM7+P07437+P68363+Q9BQE3+Q6PEY2+Q13885+Q9BVA1+Q9BUF5); experiment: Inhibition of tubulin polymerization (unknown origin) by fluorescence assay relative to control; assay type: protein-complex assay; details: concentration not given here
Mus musculus [33] = organism: Mus musculus; experiment: Antidepressant activity in Swiss albino mouse assessed as decrease in immobility time by forced swimming test; assay type: functional
Mus musculus [34] = organism: Mus musculus; experiment: Antidepressant activity in Swiss albino mouse assessed as decrease in immobility time by tail suspension test; assay type: functional
[35] = tested on: Mycobacterium tuberculosis; experiment: microbe, parasite or virus in culture; details: H37Rv
Acetylcholinesterase = Acetylcholinesterase (Homo sapiens, UniProt P22303)
Acetylcholinesterase, sequence (P22303 whole entry): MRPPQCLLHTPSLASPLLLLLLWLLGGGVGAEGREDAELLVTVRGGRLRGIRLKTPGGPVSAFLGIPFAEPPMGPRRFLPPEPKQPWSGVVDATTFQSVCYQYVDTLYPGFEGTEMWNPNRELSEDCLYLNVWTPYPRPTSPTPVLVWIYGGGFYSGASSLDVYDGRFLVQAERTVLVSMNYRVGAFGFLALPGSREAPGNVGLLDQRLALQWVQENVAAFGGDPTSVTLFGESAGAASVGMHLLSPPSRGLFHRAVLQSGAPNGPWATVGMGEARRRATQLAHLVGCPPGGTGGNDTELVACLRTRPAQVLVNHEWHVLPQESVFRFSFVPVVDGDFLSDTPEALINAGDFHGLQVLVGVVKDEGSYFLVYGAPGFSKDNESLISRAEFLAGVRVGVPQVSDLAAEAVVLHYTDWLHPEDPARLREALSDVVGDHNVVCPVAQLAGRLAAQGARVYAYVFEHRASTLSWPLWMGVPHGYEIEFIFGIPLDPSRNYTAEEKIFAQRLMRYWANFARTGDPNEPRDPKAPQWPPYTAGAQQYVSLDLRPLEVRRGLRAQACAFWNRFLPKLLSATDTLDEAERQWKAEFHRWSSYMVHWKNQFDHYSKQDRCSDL

## OC(Cn1cncn1)(Cn1cncn1)c1ccc(F)cc1F [FLUCONAZOLE]
Escherichia coli [1]
  MIC: 30 µg/mL (≈ 98 µM)
Aspergillus fumigatus
  MIC: 30 µg/mL (≈ 98 µM)
Aspergillus niger [2]
  MIC: 30 µg/mL (≈ 98 µM)
Aspergillus flavus
  MIC: 30 µg/mL (≈ 98 µM)
Staphylococcus aureus [3]
  MIC: 30 µg/mL (≈ 98 µM)
Bacillus subtilis [4]
  MIC: 30 µg/mL (≈ 98 µM)
Pseudomonas aeruginosa [5]
  MIC: 30 µg/mL (≈ 98 µM)
Candida albicans [6]
  MIC: 30 µg/mL (≈ 98 µM)
Staphylococcus aureus [7]
  MIC: < 10 µg/mL
Candida albicans [8]
  MIC: < 10 µg/mL

## Oc1ccc(Br)cc1C1=NOC(c2cc3ccccc3n3nnnc23)C1 (stereo unspecified)
Escherichia coli [9]
  MIC: 25 µg/mL (≈ 60.9 µM)
Pseudomonas aeruginosa [10]
  MIC: 25 µg/mL (≈ 60.9 µM)
Staphylococcus aureus [11]
  MIC: 25 µg/mL (≈ 60.9 µM)
Bacillus subtilis [12]
  MIC: 25 µg/mL (≈ 60.9 µM)

## Fc1ccc(-c2csc(N3N=C(c4cccs4)CC3c3ccc(Cl)cc3Cl)n2)cc1 (stereo unspecified)
HepG2 [13]
  IC50: 1700 nM

## Cc1ccc(-c2nn(-c3ccccc3)cc2C2CC(c3cccs3)=NN2)cc1 (stereo unspecified)
Plasmodium berghei
  Activity: 63.4%

## NC[C@H]1O[C@H](O[C@H]2[C@H](O)[C@@H](O[C@H]3O[C@H](CO)[C@@H](O)[C@H](N)[C@H]3O)[C@H](N)C[C@@H]2N)[C@H](N)[C@@H](O)[C@@H]1O [BEKANAMYCIN]
Escherichia coli [14]
  MIC: 1.56 µg/mL (≈ 3.23 µM)
Pseudomonas aeruginosa [15]
  MIC: 1.56 µg/mL (≈ 3.23 µM)
Staphylococcus aureus [16]
  MIC: 1.56 µg/mL (≈ 3.23 µM)
Bacillus subtilis [17]
  MIC: 1.56 µg/mL (≈ 3.23 µM)

## NS(=O)(=O)c1ccc(C(=O)N2N=C(c3ccc(F)cc3)CC2c2ccc(F)cc2)cc1 (stereo unspecified)
Carbonic anhydrase 1
  Ki: 87.8 nM
Carbonic anhydrase 9
  Ki: 5.5 nM
Carbonic anhydrase 12
  Ki: 7.1 nM
Carbonic anhydrase 2
  Ki: 31.7 nM

## Oc1ccc(C2=NNC(c3ccc(Cl)cc3)C2)cc1 (stereo unspecified)
Mus musculus [18]
  Time: 21.17 s
Mus musculus [19]
  Time: 21.17 s
Mus musculus [20]
  Activity: 17.67

## COc1cccc2cc(C3CC(c4cc(Br)ccc4O)=NN3)c3nnnn3c12 (stereo unspecified)
Pseudomonas aeruginosa [21]
  Ratio: 2

## COc1cccc2cc(C3CC(c4cc(Br)ccc4O)=NO3)c3nnnn3c12 (stereo unspecified)
Candida albicans [22]
  MIC: 25 µg/mL (≈ 56.8 µM)
Aspergillus niger [23]
  MIC: 25 µg/mL (≈ 56.8 µM)

## CC(=O)N1N=C(c2ccc(Br)cc2)CC1c1cc(Cl)ccc1Oc1c([N+](=O)[O-])cc(C(F)(F)F)cc1[N+](=O)[O-] (stereo unspecified)
Escherichia coli [14]
  MIC: 0.39 µg/mL (≈ 0.621 µM)
Pseudomonas aeruginosa [15]
  MIC: 0.39 µg/mL (≈ 0.621 µM)
Staphylococcus aureus [16]
  MIC: 3.12 µg/mL (≈ 4.98 µM)
Bacillus subtilis [17]
  MIC: 3.12 µg/mL (≈ 4.98 µM)

## OCCNc1nc(NCCO)nc(Nc2ccc(C3=NN(c4cc(Cl)cc(Cl)c4)C(c4ccc(Cl)cc4)C3)cc2)n1 (stereo unspecified)
[24]
  GI50: 569 nM
[25]
  CC50: 5150 nM

## NS(=O)(=O)c1ccc(C(=O)N2N=C(c3ccc(F)cc3)CC2c2ccccc2)cc1 (stereo unspecified)
Carbonic anhydrase 1
  Ki: 87.8 nM
Carbonic anhydrase 9
  Ki: 5.5 nM
Carbonic anhydrase 12
  Ki: 7.1 nM
Carbonic anhydrase 2
  Ki: 31.7 nM

## O=c1oc2ccc(F)cc2cc1-c1csc(N2N=C(c3cccc(F)c3)CC2c2cc3ccccc3nc2Cl)n1 (stereo unspecified)
[26]
  MIC: 50 µg/mL (≈ 87.6 µM)
Staphylococcus aureus [27]
  MIC: 50 µg/mL (≈ 87.6 µM)
Enterococcus faecalis
  MIC: 50 µg/mL (≈ 87.6 µM)
[28]
  MIC: 50 µg/mL (≈ 87.6 µM)
Bacillus subtilis [29]
  MIC: 50 µg/mL (≈ 87.6 µM)
Bacillus cereus
  MIC: 50 µg/mL (≈ 87.6 µM)
Escherichia coli [30]
  MIC: 50 µg/mL (≈ 87.6 µM)
Pseudomonas aeruginosa [31]
  MIC: 50 µg/mL (≈ 87.6 µM)
Klebsiella pneumoniae
  MIC: 50 µg/mL (≈ 87.6 µM)
Proteus vulgaris
  MIC: 50 µg/mL (≈ 87.6 µM)

## Cc1ccc2c(c1)cc(C1CC(c3cc(Br)ccc3O)=NN1)c1nnnn12 (stereo unspecified)
Aspergillus niger [23]
  MIC: 25 µg/mL (≈ 59.1 µM)

## CC1(C)S[C@@H]2[C@H](NC(=O)Cc3ccccc3)C(=O)N2[C@H]1C(=O)O [PENICILLIN G]
Escherichia coli [14]
  MIC: 3.12 µg/mL (≈ 9.35 µM)
Pseudomonas aeruginosa [15]
  MIC: 3.12 µg/mL (≈ 9.35 µM)
Staphylococcus aureus [16]
  MIC: 0.39 µg/mL (≈ 1.17 µM)
Bacillus subtilis [17]
  MIC: 0.39 µg/mL (≈ 1.17 µM)

## COc1cc(C2CC(c3ccc(Nc4nc(NCCO)nc(NCCO)n4)cc3)=NN2c2cc(Cl)cc(Cl)c2)cc(OC)c1OC (stereo unspecified)
[24]
  GI50: 569 nM
[25]
  CC50: 5150 nM

## COc1cc(C2CC(c3ccccc3O)=NN2c2cc3ccccc3s2)cc(OC)c1O (stereo unspecified)
HepG2 [32]
  IC50: 3570 nM

## COc1ccc(/C=C/C(=O)c2cc(OC)c(OC)c(OC)c2)cc1OCc1cn(Cc2ccc(N)cc2)nn1
DU-145
  GI50: 1500 nM
Tubulin (Homo sapiens)
  inhibition: 36%

## O=C1N=C(N2N=C(c3cccs3)CC2c2cc(Cl)ccc2Cl)S/C1=N/Nc1ccc(Cl)cc1 (stereo unspecified)
HepG2 [13]
  IC50: 3540 nM

## Cc1nc(-c2ccc(Br)cc2)ccc1C1=NNC(c2c(F)cccc2Cl)C1 (stereo unspecified)
Mus musculus [33]
  Time: 66.67 s
Mus musculus [34]
  Time: 70.33 s
[35]
  MIC: 12.5 µg/mL (≈ 28.1 µM)

## NNC(=O)c1ccncc1 [ISONIAZID]
[35]
  MIC: 6.25 µg/mL (≈ 45.6 µM)

## Cc1ccc(C(=O)/C=C/c2ccc(N3CCCCC3)cc2)s1
Acetylcholinesterase
  IC50: 130 nM
